Values of other authors as cited in article PMC10026531 (Clinical Pharmacology in Drug Development, 2022).

Conditions: in vivo, po

For `O=c1ccc2ccc(OCCCCN3CCN(c4cccc(Cl)c4Cl)CC3)cc2[nH]1` [dehydro‐aripiprazole], the “share of the parent drug exposure in plasma” value is given as 40%.
